Test results taken from US20250345440A1, “METAL-ORGANIC FRAMEWORK MATERIALS AND USES OF THE METAL-ORGANIC FRAMEWORK MATERIALS” (MOF Science, LLC, priority 2024, published 2025).

Experiment: Second study: NAD in tissues, oral (pegylated)NAD-Mg-GA vs injectable NAD
Assay type: in vivo
Conditions: group 2 (IP injectable NAD) vs group 1 (oral (pegylated)NAD-Mg-GA), healthy rats

More NAD levels in the heart compared to group 1: 11%
SMILES: NC(=O)c1ccc[n+]([C@@H]2O[C@H](COP(=O)([O-])OP(=O)(O)OC[C@H]3O[C@@H](n4cnc5c(N)ncnc54)[C@H](O)[C@@H]3O)[C@@H](O)[C@H]2O)c1 [injectable NAD, Nicotinamide Adenine Dinucleotide]
